Each compound was assayed on H3K27 methylation in G401 cell (assay: ELISA (H3K27 methylation) assay). Conditions: Homo sapiens, G-401; ELISA Qualified assay (H3K27 methylation); read-out: (c) IC50 (μM), ELISA Qualified.
Type: cell-based
Source text: ELISA (H3K27 Methylation) Assay

| IC50 [µM] | Structure (SMILES) |
| --- | --- |
| 0.12 | Clc1ccncc1-c1cnc(NCc2cccc3c2CCO3)n2cnnc12 [Example 50, 8-(4-chloropyridin-3-yl)-N-((2,3-dihydrobenzofuran-4-yl)methyl)-[1,2,4]triazolo[4,3-c]pyrimidin-5-amine] |
| 0.106 | Cc1ccc(-c2cnc(NCc3cccc4c3CCO4)n3cnnc23)cn1 [Example 52] |
| 0.141 | CN(C)CCc1ccc(-c2cnc(NCc3cccc4c3CCO4)n3cnnc23)cn1 [Example 53, N-((2,3-dihydrobenzofuran-4-yl)methyl)-8-(6-(2-(dimethylamino)ethyl)pyridin-3-yl)-[1,2,4]triazolo[4,3-c]pyrimidin-5-amine] |
| 0.144 | COc1ncc(-c2cnc(NCc3cccc4c3CCO4)n3cnnc23)cn1 [Example 54, N-((2,3-dihydrobenzofuran-4-yl)methyl)-8-(2-methoxypyrimidin-5-yl)-[1,2,4]triazolo[4,3-c]pyrimidin-5-amine] |
| 0.0131 | CN(C)C(=O)c1ccc(-c2cnc(NCc3c(F)ccc4c3CCO4)n3cnnc23)cc1 [Example 55, 4-(5-(((5-fluoro-2,3-dihydrobenzofuran-4-yl)methyl)amino)-[1,2,4]triazolo[4,3-c]pyrimidin-8-yl)-N,N-dimethylbenzamide] |
| 0.0493 | CS(=O)(=O)c1ccc(-c2cnc(NCc3c(F)ccc4c3CCO4)n3cnnc23)cn1 [Example 56, N-((5-fluoro-2,3-dihydrobenzofuran-4-yl)methyl)-8-(6-(methylsulfonyl)pyridin-3-yl)-[1,2,4]triazolo[4,3-c]pyrimidin-5-amine] |
| 0.0334 | Cc1ccc(-c2cnc(NCc3c(F)ccc4c3CCO4)n3cnnc23)cn1 [Example 57, N-((5-fluoro-2,3-dihydrobenzofuran-4-yl)methyl)-8-(6-methylpyridin-3-yl)-[1,2,4]triazolo[4,3-c]pyrimidin-5-amine] |
| 0.124 | Nc1cc(F)c(-c2cnc(NCc3cccc4c3CCO4)n3cnnc23)cn1 [Example 58, 8-(6-amino-4-fluoropyridin-3-yl)-N-((2,3-dihydrobenzofuran-4-yl)methyl)-[1,2,4]triazolo[4,3-c]pyrimidin-5-amine] |
| 0.086 | Cc1noc(C)c1-c1cnc(NCc2cccc3c2CCO3)n2cnnc12 [Example 59, N-((2,3-dihydrobenzofuran-4-yl)methyl)-8-(3,5-dimethylisoxazol-4-yl)-[1,2,4]triazolo[4,3-c]pyrimidin-5-amine] |
| 0.299 | Cc1ncc(-c2cnc(NCc3cccc4c3CCO4)n3cnnc23)cn1 [Example 60, N-((2,3-dihydrobenzofuran-4-yl)methyl)-8-(2-methylpyrimidin-5-yl)-[1,2,4]triazolo[4,3-c]pyrimidin-5-amine] |
| 0.175 | CN(C)c1ccc(-c2cnc(NCc3cccc4c3CCO4)n3cnnc23)cn1 [Example 61, N-((2,3-dihydrobenzofuran-4-yl)methyl)-8-(6-(dimethylamino)pyridin-3-yl)-[1,2,4]triazolo[4,3-c]pyrimidin-5-amine] |
| 0.339 | N#Cc1ccc(-c2cnc(NCc3cccc4c3CCO4)n3cnnc23)cn1 [Example 62, 5-(5-(((2,3-dihydrobenzofuran-4-yl)methyl)amino)-[1,2,4]triazolo[4,3-c]pyrimidin-8-yl)picolinonitrile] |
| 0.198 | CCOc1ccc(-c2cnc(NCc3cccc4c3CCO4)n3cnnc23)cn1 [Example 63, N-((2,3-dihydrobenzofuran-4-yl)methyl)-8-(6-ethoxypyridin-3-yl)-[1,2,4]triazolo[4,3-c]pyrimidin-5-amine] |
| 0.0978 | Cc1c(-c2cnc(NCc3cccc4c3CCO4)n3cnnc23)cnn1C [Example 64, N-((2,3-dihydrobenzofuran-4-yl)methyl)-8-(1,5-dimethyl-1H-pyrazol-4-yl)-[1,2,4]triazolo[4,3-c]pyrimidin-5-amine] |
| 0.11 | c1cc(CNc2ncc(-c3ccc(C4CC4)nc3)c3nncn23)c2c(c1)OCC2 [Example 65, 8-(6-cyclopropylpyridin-3-yl)-N-((2,3-dihydrobenzofuran-4-yl)methyl)-[1,2,4]triazolo[4,3-c]pyrimidin-5-amine] |
| 0.0803 | COCCn1nc(C)c(-c2cnc(NCc3cccc4c3CCO4)n3cnnc23)c1C [Example 66, N-((2,3-dihydrobenzofuran-4-yl)methyl)-8-(1-(2-methoxyethyl)-3,5-dimethyl-1H-pyrazol-4-yl)-[1,2,4]triazolo[4,3-c]pyrimidin-5-amine] |
| 0.521 | Cc1nn(CCO)c(C)c1-c1cnc(NCc2cccc3c2CCO3)n2cnnc12 [Example 67, 2-(4-(5-(((2,3-dihydrobenzofuran-4-yl)methyl)amino)-[1,2,4]triazolo[4,3-c]pyrimidin-8-yl)-3,5-dimethyl-1H-pyrazol-1-yl)ethanol] |
| 0.378 | O=C(c1ccc(-c2cnc(NCc3cccc4c3CCO4)n3cnnc23)cn1)N1CCOCC1 [Example 68, (5-(5-(((2,3-dihydrobenzofuran-4-yl)methyl)amino)-[1,2,4]triazolo[4,3-c]pyrimidin-8-yl)pyridin-2-yl)(morpholino)methanone] |

| IC50 [µM] | Structure (SMILES) |
| --- | --- |
| 0.0839 | Cc1cc(-c2cnc(NCc3cccc4c3CCO4)n3cnnc23)cnc1S(C)(=O)=O [Example 70, N-((2,3-dihydrobenzofuran-4-yl)methyl)-8-(5-methyl-6-(methylsulfonyl)pyridin-3-yl)-[1,2,4]triazolo[4,3-c]pyrimidin-5-amine] |
| 0.0426 | Cc1noc(C)c1-c1cnc(NCc2c(F)ccc3c2CCO3)n2cnnc12 [Example 71, 8-(3,5-dimethylisoxazol-4-yl)-N-((5-fluoro-2,3-dihydrobenzofuran-4-yl)methyl)-[1,2,4]triazolo[4,3-c]pyrimidin-5-amine] |
| 0.0097 | CN1CCN(C(=O)c2ccc(-c3cnc(NCc4c(F)ccc5c4CCO5)n4cnnc34)cc2)CC1 [Example 72, (4-(5-(((5-fluoro-2,3-dihydrobenzofuran-4-yl)methyl)amino)-[1,2,4]triazolo[4,3-c]pyrimidin-8-yl)phenyl)(4-methylpiperazin-1-yl)methanone] |
| 0.332 | Cc1cc(-c2cnc(NCc3cccc4c3CCO4)n3cnnc23)cnc1N1CCOCC1 [Example 73, N-((2,3-dihydrobenzofuran-4-yl)methyl)-8-(5-methyl-6-morpholinopyridin-3-yl)-[1,2,4]triazolo[4,3-c]pyrimidin-5-amine] |
| 0.298 | CS(=O)(=O)CCOc1ccc(-c2cnc(NCc3cccc4c3CCO4)n3cnnc23)cc1 [Example 75, N-((2,3-dihydrobenzofuran-4-yl)methyl)-8-(4-(2-(methylsulfonyl)ethoxy)phenyl)-[1,2,4]triazolo[4,3-c]pyrimidin-5-amine] |
| 0.32 | Nc1ccncc1-c1cnc(NCc2cccc3c2CCO3)n2cnnc12 [Example 76, 8-(4-aminopyridin-3-yl)-N-((2,3-dihydrobenzofuran-4-yl)methyl)-[1,2,4]triazolo[4,3-c]pyrimidin-5-amine] |
| 0.581 | c1cc(CNc2ncc(-c3cncc(N4CCNCC4)c3)c3nncn23)c2c(c1)OCC2 [Example 77, N-((2,3-dihydrobenzofuran-4-yl)methyl)-8-(5-(piperazin-1-yl)pyridin-3-yl)-[1,2,4]triazolo[4,3-c]pyrimidin-5-amine] |
| 0.132 | O=C(c1ccc(-c2cnc(NCc3cccc4c3CCO4)n3cnnc23)cn1)N1CCCC1 [Example 80, (5-(5-(((2,3-dihydrobenzofuran-4-yl)methyl)amino)-[1,2,4]triazolo[4,3-c]pyrimidin-8-yl)pyridin-2-yl)(pyrrolidin-1-yl)methanone] |
| 0.155 | c1cc(CNc2ncc(-c3ccc(N4CCSCC4)nc3)c3nncn23)c2c(c1)OCC2 [Example 81, N-((2,3-dihydrobenzofuran-4-yl)methyl)-8-(6-thiomorpholinopyridin-3-yl)-[1,2,4]triazolo[4,3-c]pyrimidin-5-amine] |
| 0.107 | Cc1nn(C(C)C)cc1-c1cnc(NCc2cccc3c2CCO3)n2cnnc12 [Example 82, N-((2,3-dihydrobenzofuran-4-yl)methyl)-8-(1-isopropyl-3-methyl-1H-pyrazol-4-yl)-[1,2,4]triazolo[4,3-c]pyrimidin-5-amine] |
| 0.14 | COCc1ncc(-c2cnc(NCc3cccc4c3CCO4)n3cnnc23)cc1C [Example 83, N-((2,3-dihydrobenzofuran-4-yl)methyl)-8-(6-(methoxymethyl)-5-methylpyridin-3-yl)-[1,2,4]triazolo[4,3-c]pyrimidin-5-amine] |
| 0.148 | CC(O)c1ccc(-c2cnc(NCc3cccc4c3CCO4)n3cnnc23)cn1 (centres unmarked) [Example 84, 1-(5-(5-(((2,3-dihydrobenzofuran-4-yl)methyl)amino)-[1,2,4]triazolo[4,3-c]pyrimidin-8-yl)pyridin-2-yl)ethanol] |
| 0.0333 | Fc1ccncc1-c1cnc(NCc2cccc3c2CCO3)n2cnnc12 [Example 85, N-((2,3-dihydrobenzofuran-4-yl)methyl)-8-(4-fluoropyridin-3-yl)-[1,2,4]triazolo[4,3-c]pyrimidin-5-amine] |
| 0.0758 | COCCc1ccc(-c2cnc(NCc3cccc4c3CCO4)n3cnnc23)cn1 [Example 86, N-((2,3-dihydrobenzofuran-4-yl)methyl)-8-(6-(2-methoxyethyl)pyridin-3-yl)-[1,2,4]triazolo[4,3-c]pyrimidin-5-amine] |
| 0.707 | O=C1CCCN1c1cncc(-c2cnc(NCc3cccc4c3CCO4)n3cnnc23)c1 [Example 87, 1-(5-(5-(((2,3-dihydrobenzofuran-4-yl)methyl)amino)-[1,2,4]triazolo[4,3-c]pyrimidin-8-yl)pyridin-3-yl)pyrrolidin-2-one] |
| 0.238 | CN(C)c1ncc(-c2cnc(NCc3cccc4c3CCO4)n3cnnc23)cn1 [Example 88, N-((2,3-dihydrobenzofuran-4-yl)methyl)-8-(2-(dimethylamino)pyrimidin-5-yl)-[1,2,4]triazolo[4,3-c]pyrimidin-5-amine] |
| 0.101 | CN(C)CCc1cccc(-c2cnc(NCc3cccc4c3CCO4)n3cnnc23)c1 [Example 89, N-((2,3-dihydrobenzofuran-4-yl)methyl)-8-(3-(2-(dimethylamino)ethyl)phenyl)-[1,2,4]triazolo[4,3-c]pyrimidin-5-amine] |

Reference: US11207325B2, “Triazolopyrimidine compounds and uses thereof” (Novartis AG, priority 2014, dated 2021)
